According to patent US20070072815A1, “Methods and kits to increase the efficiency of oligonucleotide-directed nucleic acid sequence alteration” (priority 2004, published 2007):
“Also recorded” adds a separate entry of the source.

Assays:
DNA of DLD-1-1 cells = test: Pulsed-field gel electrophoresis of DNA damage (double strand breaks); format: cell-based; conditions: 0.75 μM bleomycin or 0.2 μM MMS, 24 hours
Experimental: The cells are released by trypsinization and melted in the agarose inserts. The agarose inserts are incubated in 0.5M EDTA—1% N-laurosylsarcosine—proteinase K (1 mg/ml) at 50° C. for 48 hrs and then washed four times in TE buffer prior to loading on a 1% agarose gel (Pulse-Field Certified Agarose, Bio-Rad, Hercules, Calif.) and DNA separation by pulsed-field gel electrophoresis is carried out for 24 hrs (Bio-Rad, 120° field angle, 60 to 240s switch time, 4 V/cm). The gel is subsequently stained with ethidium bromide and analyzed with AlphaImager™ 2200. (Alpha Innotech Corp., San Leandro, Calif.).
The effects of MMS and bleomycin on oligonucleotide-directed gene alteration are determined as follows. DLD-1-1 cells are seeded in 100 mm dishes at 2×10^6 cells per plate and immediately treated with 0.2 μM MMS or 0.75 μM bleomycin. The cells are then grown for 24 hours, until approximately 50% confluent, and washed twice with PBS. A portion of each population of cells is removed for DNA analysis by pulsed-field electrophoresis, as described in Example 1. The correcting oligo EGFP/72NT (10 μg) is then added and the cells are electroporated as in Example 3. Cells are then analyzed to determine the percentage of cells with corrected eGFP genes as described in Example 3.

[1] = test system: mutant eGFP gene in DLD-1-1 cells; test: eGFP gene correction (oligonucleotide-directed sequence alteration) in DLD-1-1 cells, FACS readout; format: cell-based; conditions: 0.2 μM MMS 24 hours before electroporation, 10 μg oligo
DLD-1-1 cells [2] = test: Cell viability / cell death by propidium iodide FACS
Experimental: Flow cytometry analysis: eGFP fluorescence of corrected cells is measured by a Becton Dickinson FACSCalibur™ flow cytometer (Becton Dickinson, Rutherford, N.J.). Cells are harvested 48 hrs after electroporation and resuspended in FACS buffer (0.5% BSA, 2 mM EDTA, 2 μg/ml propidium iodide in PBS). More specifically, the program is set for the appropriate cell size (forward scatter versus side scatter) and the population of single-cells is gated for analysis. Using the negative control (minus PI, minus GFP) the background fluorescence was set by positioning the cells in the 10^1 decade of the dot plot by adjusting the voltage for FL1 (GFP) and FL2 (PI). The composition is then set for multi-fluorochrome experiments using a GFP control sample containing no PI and increasing the compensation to bring the signal toward the FL1 parameter. Finally, the last control, PI and no GFP is used to increase the compensation to bring the signal toward the FL2 parameter. Samples of 50,000 cells each are analyzed and those cells being GFP positive and PI negative are scored as corrected cells.
For cells that were not previously treated with caffeine, caffeine is added to the media to a final concentration of 4 mM in the 60 mM dish immediately following electroporation (the “recovery phase”). For cells that were pre-treated with caffeine, there is no addition of caffeine during the recovery phase. After 24 hrs of recovery, the media is changed and caffeine (4 mM final concentration) is added back to the culture. After 48 hrs of recovery, the samples are read by FACS: eGFP fluorescence reflects gene alteration (correction), and propidium iodide (PI) staining reflects cellular viability.

[3] = test system: mutant eGFP gene in DLD-1-1 cells; test: eGFP gene correction (oligonucleotide-directed sequence alteration) in DLD-1-1 cells, FACS readout; format: cell-based; conditions: for correction efficiency: cells synchronized by double thymidine block, then 10 mM thymidine 24 hours
Experimental: Cell line and culture conditions: DLD-1 cells are obtained from ATCC (American Type Cell Culture, Manassas, Va.). DLD-1 integrated clone 1 (DLD-1-1) is obtained by integration of the vector pEGFP-N3 containing a single point mutation (TAG) in the eGFP gene, as described in copending U.S. patent application Ser. No. 10/986,418, filed Nov. 10, 2004 (“Mammalian Cell Lines for Detecting, Monitoring, and Optimizing Oligonucleotide-Mediated Chromosomal Sequence Alteration”). Cells are grown in RPMI 1640 medium with 2 mM glutamine, 4.5 g/L glucose, 10 mM HEPES, 1 mM sodium pyruvate and supplemented with 10% FBS. Cells are maintained at 5% CO2, 37° C. and under selection in 200 μg/ml G418 (Gibco, Invitrogen Co., Carlsbad, Calif.).
eGFP gene correction: Cells grown in complete medium supplemented with 10% FBS are trypsinized and harvested by centrifugation. The cell pellet is resuspended in serum-free medium at a density of 1×10^6 cells/100 μl and transferred to a 4 mm gap cuvette (Fisher Scientific, Pittsburgh, Pa.). The oligonucleotide is then added at a concentration of 4 μM and the cells are electroporated (LV, 250V, 13 msec, 2 pulses, 1 second interval) using a BTX ECM830 apparatus (BTX, Holliston, Mass.). The cells are then transferred to a 60 mm dish containing fresh medium supplemented with 10% FBS and incubated for 48 hrs at 37° C. before harvesting for FACS analysis.
The percentage of converted cells in a whole population is then calculated by CellQuest™ (Becton Dickinson) and GFP/PI programs. The correction efficiency is determined by dividing the number of eGFP positive cells by the number of cells analyzed in each experiment (usually 50,000 cells). Each clone is tested three times to determine the standard deviation of the correction efficiency, with standard deviation calculated using Microsoft Excel.
The experimental strategy involves the introduction of oligonucleotides into DLD-1-clone 1 cells by electroporation followed by phenotypic readout of the corrected eGFP gene, 48 hours later. The correcting oligonucleotide (EGFP3S/72NT) is 72 bases in length (72-mer), complementary to the non-transcribed strand of the mutant eGFP gene but designed to create a single mismatch in the third base of codon 67 (see FIG. 1A). It directs conversion of a TAG→TAC codon which enables phenotypic expression of eGFP, which can be detected by FACS. FIG. 1B outlines the sequence of the target gene, the 72-mer and a nonspecific 74-mer used as a control.
Oligonucleotide-Directed Sequence Alteration: The resulting synchronized populations of cells, and asynchronous controls, are grown in complete medium supplemented with 10% FBS and trypsinzed and harvested by centrifugation at 1500 rpm for 5 minutes. The cell pellet is resuspended in fresh serum-free medium at a density of 2×10^6 cells/100 μl. The entire cell suspension is mixed with 20 μg of EGFP/72NT and transferred into a 4 mm gap cuvette (Fisher Scientific, Pittsburgh, Pa., USA) followed by electroporation with two 250V pulses, each 13 ms in duration, with one second between pulses, unipolar.
Cells are incubated at room temperature for 30 min. […] Frequency of converted cells are calculated by CellQuest™ and GFP/PI programs.
Double Thymidine Block: Cells are synchronized in G1 or at the G1/S border by a double thymidine block. Twenty-four hours prior to the addition of any agent (HU, etc.), cells are plated at a density of 0.5×10^6 cells per 100 mm dish, followed by incubation in 2 mM thymidine (Sigma) for 16 hrs, washed and released in fresh medium for 10 hrs, then incubated in 2 mM thymidine for an additional 15 hrs.
FACS is then used to analyze 50,000 cells from each population to determine the percentage of cells expressing functional eGFP, as described in Example 1.

DLD-1-1 cells [4] = test: Cell cycle analysis (DNA content by FACS), cells in S phase; format: cell-based
Experimental: (§1) For cell cycle analysis, 1×10^6 cells are plated 24 hrs before the treatment with drugs and after 24 hrs of treatment, cells are trypsinized, resuspended in 300 μl cold PBS and fixed by adding 700 μl cold ethanol. Cells are then resuspended in 1 ml of PBS containing 500 µg/ml RNaseA and […] propidium iodide and analyzed for DNA content.
The effect of cell cycle on the efficiency of ODSA is assessed by synchronizing a population of DLD-1-1 cells with mimosine, which arrests cells in early S phase, and serum starvation. Cells are seeded at a density of 0.8×10^6 per 100 mm dish, attached for 20 hours and then cultured in RMPI-1640 medium containing 0.2% fetal bovine serum (FBS). These cells are grown for 48 hours followed by treatment with 0.1 mM mimosine (Sigma, St. Louis, Mo., USA) for 20 hours. Cell are washed twice with PBS and released at various times into fresh medium complemented with 10% FBS before electroporation. Cells are rinsed once with PBS, trypsinized and harvested by centrifugation and resuspended in PBS containing 10 μg/ml propidium iodide, 0.03% Triton-100 and 1 mg/ml RNase. Cells are incubated at room temperature for 1 hour before the measurement of DNA content by FACSCalibur™ flow cytometer. The percentage of cells at various stages of the cell cycle is determined by ModFit L™ software (Verity Software House, Inc., Topsham, Me., USA).
(§2) The resulting cells are then either analyzed by FACS, or the percentage of cells in S phase is determined by BrdU incorporation. FIG. 8 presents the results of both sets of experiments.

DLD-1-1 cells [5] = test: BrdU incorporation (actively replicating forks); format: cell-based; conditions: 24 hour treatment; 500 μM ddC, ddI or AraC (FIG. 17B)
Experimental: as §1, §2
As stated above, the lack of stimulation observed in cells treated with AraC could be explained by the reduced number of cells passing through S phase or the absence of actively replicating forks. If true, we might predict that a rise in the gene repair frequency would appear if the cells are released from the AraC block and replication forks are allowed to restart prior to the electroporation of the oligonucleotide. We test this prediction by treating the cells with AraC for 24 hrs and then releasing them by washing out the drug at specific times. We measure the level of BrdU incorporation at the time of electroporation and evaluate the frequency of correction 48 hrs later.

[6] = test system: α-galactosidase A (GLA) activity in Fabry's cell line DMN-1; test: GLA activity in Fabry's cells after ODSA; format: cell-based, human; conditions: cells synchronized by DTB, 500 μM ddC
From the text: (§3) Cell line DMN-1, a human fibroblast cell line derived from a human patient with Fabry's disease, is obtained from the National Institutes of Health (NIH). These cells are used to measure the efficiency of correction of a mutant allele of α-galactosidase A (GLA) using methods of the present invention. The specific disease-causing mutation in the Fabry's cell line used herein is A143P, caused by a G→C mutation in the gene. See Branton et al., Medicine (Baltimore) (2002) 81(2): 122-38.
(§4) All four oligonucleotides are used to effect ODSA substantially as described in Example 1, with the exception that cells are transfected with oligonucleotides, rather than electroporated. Oligos are added at 5 μg, 10 μg or 30 μg per reaction. After ODSA is performed, cells are cultured and assayed for GLA activity according to the method of Brady, as described in Medin et al., Proc. Natl. Acad. Sci. (USA) (1996) 93:7917-22, the disclosure of which is incorporated herein by reference in its entirety. The GLA activity is used as a measure of gene correction by comparing the activities in treated versus untreated cultures. The correction efficiency is subsequently confirmed by sequencing of the locus of mutation in a number of treated cells.
[…] Unlike the experiments involving correction of eGFP in DLD-1-1 cells described in Example 1, however, certain of the agents (VPA, caffeine, TSA) in the experiments in this example are not added before transfection, but are instead added only after transfection, during the recovery period.
(§5) The means of introducing oligonucleotide into the target cells also differs from previous examples, with transfection in the presence of the transfection enhancing agent FuGENE™ 6 (FG) (Roche Diagnostics Corp., Indianapolis, Ind., USA) being used rather than electroporation. Each transfection reaction includes 100 μl of target cells and 12 μl of FG unless otherwise indicated, despite the fact that FG is not explicitly listed for each datapoint in the relevant figures. Otherwise the procedures used in the DLD-1-1 experiments and the Fabry's experiments are similar.
The results of a further series of experiments are shown at FIG. 15D, where the data are presented as GLA activity as nanomolar (nM) concentration of the product of the GLA assay generated per hour per unit protein concentration (as are the data in FIGS. D and E).

[7] = test system: mutant allele (A143P) of α-galactosidase A (GLA) in Fabry's cell line DMN-1; test: Correction efficiency of mutant GLA allele in Fabry's cells; format: cell-based, human; conditions: VP16 1-50 μM; thymidine 2-50 mM; with or without correcting oligonucleotide
From the text: as §3, §4
As in the previous examples, target cells are treated with HU, VP16 or CPT prior to transfection with the correcting oligonucleotide. Unlike the experiments involving correction of eGFP in DLD-1-1 cells described in Example 1, however, certain of the agents (VPA, caffeine, TSA) in the experiments in this example are not added before transfection, but are instead added only after transfection, during the recovery period.
as §5
The same experiment as described with respect to FIG. 15A is repeated in the presence of various agents and treatments to evaluate whether embodiments of the present invention can increase gene alteration (in this example, correction) efficiency. […] Bars represent the correction efficiencies observed in the various experiments. Unless otherwise indicated, all experiments include 10 μg of 49T/gg in addition to any other agent used to treat the cells.

**Q.** Which results are given for `COS(C)(=O)=O` [MMS, methyl methanesulfonate]?
**A.** DNA damage (DNA of DLD-1-1 cells): effect DNA damage; effect on correction efficiency [1]: more than doubles the correction efficiency; also recorded: doubles correction efficiency; effect on cell death (DLD-1-1 cells [2]; 0.2 μM MMS): Cell death is not increased

**Q.** With `Nc1ccn([C@H]2CC[C@@H](CO)O2)c(=O)n1` [ddC, 2′3′-dideoxycytidine] as the molecule, how does the correction levels ([3]; cells treated with ddC alone (FIG. 20)) read?
**A.** The correction levels was 2.9%.

**Q.** What about the “effect on correction efficiency (increase)” value ([3]; ddC 24 hrs before electroporation, 500-750 μM) of the same molecule?
**A.** The value was “more than two-fold; also recorded: approximately two- to three-fold; also recorded: dose-dependent increase”.

**Q.** What about the “cells in S phase” value (DLD-1-1 cells [4]; 24 hour treatment, 500 μM ddC, ddI or AraC (FIG. 17A)) of the same molecule?
**A.** Its value is 70%.

**Q.** And the “BrdU uptake (cells actively incorporating DNA bases)” value (DLD-1-1 cells [5])?
**A.** The value was 71.8%.

**Q.** And the “increase of GLA activity compared with untreated cells” value [6]?
**A.** The value was “approximately two-fold; also recorded: doubles DLA activity”.

**Q.** And the toxicity (DLD-1-1 cells [2]; ddC levels higher than 750 μM (data not shown))?
**A.** Its toxicity is “cellular toxicity”.

**Q.** Which “correction efficiency in synchronized cells relative to asynchronous cells” value ([3]; 1 mM HU or 10 mM thymidine, DTB synchronized vs asynchronous) does the source give for `Cc1cn([C@H]2C[C@H](O)[C@@H](CO)O2)c(=O)[nH]c1=O` [thymidine] here?
**A.** Its value is “over seven times”.

**Q.** And the “effect of synchronization by double thymidine block on correction efficiency” value ([3]; 2 mM thymidine 16 hrs, release 10 hrs, 2 mM thymidine 15 hrs, no other agent)?
**A.** The value was “increases correction efficiency”.

**Q.** What about the “effect on correction efficiency in asynchronous cells” value ([3]; 10 mM thymidine 24 hours) of the same molecule?
**A.** The value was “does not enhance correction efficiency”.

**Q.** And the correction efficiency [3]?
**A.** Its correction efficiency is 7.5%.

**Q.** What about the correction efficiency ([3]; listed as Thymidine) of the same molecule?
**A.** The correction efficiency was “over 7%”.

**Q.** And the “proportion of cells in S phase” value (DLD-1-1 cells [4]; after double thymidine block)?
**A.** The value was 1.5%.

**Q.** And the “effect on correction efficiency” value [7]?
**A.** The value was “little effect on correction efficiency”.

**Q.** Which DNA damage (DNA of DLD-1-1 cells) does the source give for bleomycin here?
**A.** The DNA damage was “effect DNA damage”.
